Source: patent US20040248848A1, “Use of specific dose of fondaparinux sodium for the treatment of acs” (priority 2004, published 2004)

Experiments:
[1] = tested on: patients with unstable angina/non Q-wave MI; assay: Dose ranging study: safety analysis, deaths; type: in vivo, human; details: for Patients with SAE from First injection Leading to death after day 30 / Patients with SAE from First injection Leading to death between first injection and day 30 / Total deaths reported: all treated patients; for Total deaths reported: first active injection onwards
Description: (§1) A double blind, randomized, controlled dose ranging study was performed testing in parallel four fondaparinux sodium daily dose levels (2.5, 4.0, 8.0 and 12.0 mg) and a dose regimen of enoxaparin (1 mg/Kg bid=twice daily). Efficacy (composite parameter of death, AMI, recurrent ischemia) and safety of the respective doses of fondaparinux sodium were assessed in patients with unstable angina/non Q-wave MI. Further, safety and efficacy of the four different dose levels of fondaparinux sodium and enoxaparin 1 mg/Kg bid were compared.
Other safety endpoints include deaths and all adverse events (latter not reported here).
(§2) The safety analysis was performed on the ‘all treated patients’ (ATP) population.

[2] = tested on: patients with unstable angina/non Q-wave MI; assay: Dose ranging study: secondary efficacy analysis (clinical endpoints); type: in vivo, human; details: for AMI / Death (not related to bleeding) / Death or AMI / Death or AMI or recurrent ischemia (Symptomatic) / Recurrent Ischemia (Symptomatic): first active injection to Day 9, per protocol including insufficient Mortara data
Description: as §1
(§3) The primary analysis for efficacy parameters was performed on the per protocol (PP) population. The choice of the patients to be excluded from PP population for efficacy analyses was defined before unblinding the trial.

[3] = tested on: patients with unstable angina/non Q-wave MI; assay: Dose ranging study in unstable angina: primary efficacy evaluation (composite of death, AMI, recurrent ischemia); type: in vivo, human; details: for AMI n (%) / Composite endpoint n (%) / Death (not related to bleeding) n (%) / Recurrent ischemia n (%) (Mortara data) / Symptomatic recurrent ischemia n (%): first active injection to Day 9, per protocol excluding insufficient Mortara data
Description: as §1
The primary efficacy endpoint consisted of the composite of the following ischeric events starting from first active drug administration up to and including Day 9 (with Day 1 being the day of first active drug administration):
Death from any cause except for death related to bleeding
Acute myocardial infarction (AMI), according to the definition in the protocol
Symptomatic recurrent ischemia (excluding episodes of ischemia during or at any time after CABG (Coronary Artery Bypass Graft) or PTCA (Percutaneous Transluminal Coronary Angioplasty)) or any ischemia on the 48-h continuous 12-lead ECG monitoring (Mortara).
In the event a patient experienced one of these events, the binary composite outcome was regarded as a treatment failure. In contrast, if none of the above events applied, the composite ischemic outcome was considered as a treatment success.
as §3

[4] = tested on: patients with unstable angina/non Q-wave MI; assay: Dose ranging study: safety analysis, adjudicated bleeding events; type: in vivo; details: for Any bleeding event n (%) / Major bleeding event n (%) / Minor bleeding event n (%): first active injection to Day 9, all treated patients
Description: as §1
The primary safety endpoint was the incidence of major bleeding from first active drug administration up to and including Day 9 as adjudicated by a blinded Central Adjudication Committee (CAC). The incidence of any major or minor bleeding was considered as a secondary safety endpoint.
as §2

## CO[C@H]1O[C@H](COS(=O)(=O)O)[C@@H](O[C@@H]2O[C@@H](C(=O)O)[C@@H](O[C@H]3O[C@H](COS(=O)(=O)O)[C@@H](O[C@@H]4O[C@H](C(=O)O)[C@@H](O[C@H]5O[C@H](COS(=O)(=O)O)[C@@H](O)[C@H](O)[C@H]5NS(=O)(=O)O)[C@H](O)[C@H]4O)[C@H](OS(=O)(=O)O)[C@H]3NS(=O)(=O)O)[C@H](O)[C@H]2OS(=O)(=O)O)[C@H](O)[C@H]1NS(=O)(=O)O [Fondaparinux sodium, methyl O-(2-deoxy-2-sulfoamino-6-O-sulfo-α-D-glucopyranosyl)-(1→4)-O-(β-D-glucopyranosyluronic acid)-(1→4)-O-(2-deoxy-2-sulfoamino-3,6-di-O-sulfo-α-D-glucopyranosyl)-(1→4)-O-(2-O-sulfo-α-L-idopyranosyluronic acid)-(1→4)-2-deoxy-2-sulfoamino-6-O-sulfo-α-D-glucopyranoside]
[1]; 2.5 mg daily (N = 229)
  Patients with SAE from First injection Leading to death after day 30: 1 (0.4%) Number (%)
  Patients with SAE from First injection Leading to death between first injection and day 30: 3 (1.3%) Number (%)
  Total deaths reported: 4 (1.7%) Number (%)
[1]; 4 mg daily (N = 222)
  Patients with SAE from First injection Leading to death after day 30: 3 (1.4%) Number (%)
  Patients with SAE from First injection Leading to death between first injection and day 30: 7 (3.2%) Number (%)
  Total deaths reported: 10 (4.5%) Number (%)
[1]; 8 mg daily (N = 223)
  Patients with SAE from First injection Leading to death after day 30: 2 (0.9%) Number (%)
  Patients with SAE from First injection Leading to death between first injection and day 30: 4 (1.8%) Number (%)
  Total deaths reported: 6 (2.7%) Number (%)
[1]; 12 mg daily (N = 238)
  Patients with SAE from First injection Leading to death after day 30: 1 (0.4%) Number (%)
  Patients with SAE from First injection Leading to death between first injection and day 30: 6 (2.5%) Number (%)
  Total deaths reported: 7 (2.9%) Number (%)
[1]; all dose groups vs enoxaparin
  differences in the percentage of deaths between treatment groups: No relevant differences
[2]; 2.5 mg daily (N = 210)
  AMI: 1 (0.5%) n (%)
  Death (not related to bleeding): 2 (1.0%) n (%)
  Death or AMI: 3 (1.4%) n (%)
  Death or AMI or recurrent ischemia (Symptomatic): 27 (12.9%) n (%)
  Recurrent Ischemia (Symptomatic): 26 (12.4%) n (%)
[2]; 2.5 mg group
  death or AMI compared with the other fondaparinux sodium groups: fewer patients tended to experience death or AMI
[2]; 4 mg daily (N = 185)
  AMI: 3 (1.6%) n (%)
  Death (not related to bleeding): 5 (2.7%) n (%)
  Death or AMI: 8 (4.3%) n (%)
  Death or AMI or recurrent ischemia (Symptomatic): 39 (21.1%) n (%)
  Recurrent Ischemia (Symptomatic): 33 (17.8%) n (%)
[2]; 8 mg daily (N = 183)
  AMI: 5 (2.7%) n (%)
  Death (not related to bleeding): 1 (0.5%) n (%)
  Death or AMI: 6 (3.3%) n (%)
  Death or AMI or recurrent ischemia (Symptomatic): 33 (18.0%) n (%)
  Recurrent Ischemia (Symptomatic): 29 (15.8%) n (%)
[2]; 12 mg daily (N = 199)
  AMI: 4 (2.0%) n (%)
  Death (not related to bleeding): 1 (0.5%) n (%)
  Death or AMI: 5 (2.5%) n (%)
  Death or AMI or recurrent ischemia (Symptomatic): 30 (15.1%) n (%)
  Recurrent Ischemia (Symptomatic): 28 (14.1%) n (%)
[3]; 2.5 mg daily (N = 203)
  AMI n (%): 1 (0.5%) n (%)
  Composite endpoint n (%): 61 (30.0%) n (%)
  Death (not related to bleeding) n (%): 2 (1.0%) n (%)
  Recurrent ischemia n (%) (Mortara data): 47 (23.2%) n (%)
  Symptomatic recurrent ischemia n (%): 26 (12.8%) n (%)
[3]; 4 mg daily (N = 177)
  AMI n (%): 3 (1.7%) n (%)
  Composite endpoint n (%): 77 (43.5%) n (%)
  Death (not related to bleeding) n (%): 5 (2.8%) n (%)
  Recurrent ischemia n (%) (Mortara data): 63 (35.6%) n (%)
  Symptomatic recurrent ischemia n (%): 33 (18.6%) n (%)
[3]; 8 mg daily (N = 173)
  AMI n (%): 5 (2.9%) n (%)
  Composite endpoint n (%): 71 (41.0%) n (%)
  Death (not related to bleeding) n (%): 1 (0.6%) n (%)
  Recurrent ischemia n (%) (Mortara data): 55 (31.8%) n (%)
  Symptomatic recurrent ischemia n (%): 29 (16.8%) n (%)
[3]; 12 mg daily (N = 187)
  AMI n (%): 4 (2.1%) n (%)
  Composite endpoint n (%): 65 (34.8 %) n (%)
  Death (not related to bleeding) n (%): 1 (0.5%) n (%)
  Recurrent ischemia n (%) (Mortara data): 56 (29.9%) n (%)
  Symptomatic recurrent ischemia n (%): 28 (15.0%) n (%)
[3]; All doses pooled (N = 740)
  AMI n (%): 13 (1.8%) n (%)
  Composite endpoint n (%): 274 (37.0%) n (%)
  Death (not related to bleeding) n (%): 9 (1.2%) n (%)
  Recurrent ischemia n (%) (Mortara data): 221 (29.9%) n (%)
  Symptomatic recurrent ischemia n (%): 116 (15.7%) n (%)
[3]; all fondaparinux sodium doses
  efficacy compared with enoxaparin 1 mg/Kg bid: at least as effective as enoxaparin
[3]; all fondaparinux sodium groups pooled
  incidence of the composite endpoint: 37.0%
[3]; four fondaparinux sodium groups (2.5, 4.0, 8.0, 12.0 mg)
  dose-response for the primary endpoint: No dose-response
[4]; 2.5 mg daily (N = 229)
  Any bleeding event n (%): 9 (3.9%) n (%)
  Major bleeding event n (%): 0 (0.0%) n (%)
  Minor bleeding event n (%): 9 (3.9%) n (%)
[4]; 2.5 mg group
  major bleedings observed: No major bleedings were observed
[4]; 4 mg daily (N = 222)
  Any bleeding event n (%): 12 (5.4%) n (%)
  Major bleeding event n (%): 3 (1.4%) n (%)
  Minor bleeding event n (%): 9 (4.1%) n (%)
[4]; 8 mg daily (N = 223)
  Any bleeding event n (%): 12 (5.4%) n (%)
  Major bleeding event n (%): 4 (1.8%) n (%)
  Minor bleeding event n (%): 9 (4.0%) n (%)
[4]; 12 mg daily (N = 238)
  Any bleeding event n (%): 11 (4.6%) n (%)
  Major bleeding event n (%): 1 (0.4%) n (%)
  Minor bleeding event n (%): 10 (4.2%) n (%)
[4]; all dose groups
  differences between fondaparinux sodium groups and the enoxaparin group for safety parameters: No significant differences
[4]; all dose groups vs enoxaparin
  differences between treatment groups for major, minor or any bleeding: No relevant differences
